pIC50: −log10 of the molar value. Several values for one entry are separate records, joined by “and”; a condition that tells them apart may be missing. Equal entries are not always repeated. Where two headings read alike, the source gives them in different places.
Columns and labels:
HeLa-ACE2 cells = conditions: for perc_max_measured: highest measured response of the dose series; for perc_min_measured: lowest measured response of the dose series
CYP = CYP inhibition; format: in vitro ADME; conditions: In vitro CYP inhibition pooled; for potency: potency class in words
Excerpt: Supplement media-1.zip/CYP_Inhibition.csv, table | column: ic50; potency

alpha2A (h) = molecular target: T1, alpha2A (h) (Homo sapiens, UniProt P08913); assay: In vitro CEREP profiling, alpha2A (h) (antagonist radioligand); format: binding; conditions: test compound 10 uM
T1 construct: purchased Eurofins Cerep (SafetyScreen44), recognised from the panel format
T1 sequence (P08913 1-465): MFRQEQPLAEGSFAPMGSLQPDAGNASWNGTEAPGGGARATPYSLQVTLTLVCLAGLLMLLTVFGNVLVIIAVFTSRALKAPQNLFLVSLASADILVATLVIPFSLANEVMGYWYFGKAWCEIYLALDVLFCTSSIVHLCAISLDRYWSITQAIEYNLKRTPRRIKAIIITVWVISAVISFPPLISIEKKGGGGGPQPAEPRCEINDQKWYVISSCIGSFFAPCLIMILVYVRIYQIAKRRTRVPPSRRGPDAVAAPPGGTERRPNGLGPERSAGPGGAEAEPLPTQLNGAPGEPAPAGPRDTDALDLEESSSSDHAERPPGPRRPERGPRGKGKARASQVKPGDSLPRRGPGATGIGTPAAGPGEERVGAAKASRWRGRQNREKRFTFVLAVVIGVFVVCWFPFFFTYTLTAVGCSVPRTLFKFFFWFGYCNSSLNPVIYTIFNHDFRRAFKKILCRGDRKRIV
Excerpt: (§1) Supplement media-1.zip/Safety_Panel_Profile.csv, table | column: perc_inhibition

A2A (h) = molecular target: T2, A2A (h) (Homo sapiens, UniProt P29274); assay: In vitro CEREP profiling, A2A (h) (agonist radioligand); format: binding; conditions: test compound 10 uM
T2 construct: purchased Eurofins Cerep (SafetyScreen44), recognised from the panel format
T2 sequence (P29274 whole entry): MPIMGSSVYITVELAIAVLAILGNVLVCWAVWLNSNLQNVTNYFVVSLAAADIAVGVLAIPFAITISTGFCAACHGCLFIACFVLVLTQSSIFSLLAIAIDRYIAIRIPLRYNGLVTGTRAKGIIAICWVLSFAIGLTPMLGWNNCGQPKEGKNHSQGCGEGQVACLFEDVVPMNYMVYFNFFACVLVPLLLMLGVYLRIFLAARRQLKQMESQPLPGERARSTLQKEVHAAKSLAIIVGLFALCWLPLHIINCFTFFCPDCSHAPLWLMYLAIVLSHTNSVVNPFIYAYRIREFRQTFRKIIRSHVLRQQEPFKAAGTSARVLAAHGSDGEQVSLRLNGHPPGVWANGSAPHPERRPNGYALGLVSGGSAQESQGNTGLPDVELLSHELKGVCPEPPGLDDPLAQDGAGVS
Excerpt: as §1

KV channel = assay: In vitro CEREP profiling, KV channel (antagonist radioligand); format: binding; conditions: test compound concentration 10 uM
Excerpt: as §1

human CHRM2 (M2) = molecular target: T3, human CHRM2 (M2) (Homo sapiens, UniProt P08172); assay: Eurofins CEREP panel, M2; format: binding; conditions: M2 (h) (antagonist radioligand); test compound concentration 10 uM
T3 construct: purchased Eurofins Cerep (SafetyScreen44), recognised from the panel format
T3 sequence (P08172 1-466): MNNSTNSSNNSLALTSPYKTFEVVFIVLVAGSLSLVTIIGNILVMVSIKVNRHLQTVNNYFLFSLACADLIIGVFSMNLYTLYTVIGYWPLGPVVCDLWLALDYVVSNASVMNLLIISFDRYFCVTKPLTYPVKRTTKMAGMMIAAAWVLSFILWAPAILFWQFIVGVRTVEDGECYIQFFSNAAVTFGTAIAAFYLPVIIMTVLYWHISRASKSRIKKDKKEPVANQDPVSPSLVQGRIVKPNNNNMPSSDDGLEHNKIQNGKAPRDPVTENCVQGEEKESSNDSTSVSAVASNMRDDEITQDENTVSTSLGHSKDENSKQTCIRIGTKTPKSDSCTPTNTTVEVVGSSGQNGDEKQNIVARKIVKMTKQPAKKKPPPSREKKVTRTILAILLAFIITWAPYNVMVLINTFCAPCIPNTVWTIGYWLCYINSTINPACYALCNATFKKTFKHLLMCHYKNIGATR

Protein binding = format: in vitro ADME
Excerpt: Supplement media-1.zip/Protein_Binding.csv, table | column: fu; perc_bound; perc_free; perc_recovered

M3 (h) = molecular target: T4, M3 (h) (Homo sapiens, UniProt P20309); assay: In vitro CEREP profiling, M3 (h) (antagonist radioligand); format: binding; conditions: test compound concentration 10 uM
T4 construct: purchased Eurofins Cerep (SafetyScreen44), recognised from the panel format
T4 sequence (P20309 whole entry): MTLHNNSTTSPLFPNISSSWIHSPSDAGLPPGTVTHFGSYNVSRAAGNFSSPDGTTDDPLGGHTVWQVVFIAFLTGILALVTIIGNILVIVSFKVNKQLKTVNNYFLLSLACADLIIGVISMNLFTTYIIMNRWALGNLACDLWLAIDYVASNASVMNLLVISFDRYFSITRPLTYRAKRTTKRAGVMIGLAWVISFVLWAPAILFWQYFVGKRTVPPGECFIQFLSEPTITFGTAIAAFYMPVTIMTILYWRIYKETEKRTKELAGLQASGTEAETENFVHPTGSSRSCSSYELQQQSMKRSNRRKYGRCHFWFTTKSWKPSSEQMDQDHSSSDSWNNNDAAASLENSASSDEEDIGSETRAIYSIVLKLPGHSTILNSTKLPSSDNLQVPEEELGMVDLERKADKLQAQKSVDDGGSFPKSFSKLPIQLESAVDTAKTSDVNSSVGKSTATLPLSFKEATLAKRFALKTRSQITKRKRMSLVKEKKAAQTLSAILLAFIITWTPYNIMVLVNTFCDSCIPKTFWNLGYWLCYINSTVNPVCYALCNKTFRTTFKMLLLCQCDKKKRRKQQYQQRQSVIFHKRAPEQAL
Excerpt: as §1

CB1 (h) = molecular target: T5, CB1 (h) (Homo sapiens, UniProt P21554); assay: In vitro CEREP profiling, CB1 (h) (agonist radioligand); format: binding; conditions: test compound 10 uM
T5 construct: purchased Eurofins Cerep (SafetyScreen44), recognised from the panel format
T5 sequence (P21554 whole entry): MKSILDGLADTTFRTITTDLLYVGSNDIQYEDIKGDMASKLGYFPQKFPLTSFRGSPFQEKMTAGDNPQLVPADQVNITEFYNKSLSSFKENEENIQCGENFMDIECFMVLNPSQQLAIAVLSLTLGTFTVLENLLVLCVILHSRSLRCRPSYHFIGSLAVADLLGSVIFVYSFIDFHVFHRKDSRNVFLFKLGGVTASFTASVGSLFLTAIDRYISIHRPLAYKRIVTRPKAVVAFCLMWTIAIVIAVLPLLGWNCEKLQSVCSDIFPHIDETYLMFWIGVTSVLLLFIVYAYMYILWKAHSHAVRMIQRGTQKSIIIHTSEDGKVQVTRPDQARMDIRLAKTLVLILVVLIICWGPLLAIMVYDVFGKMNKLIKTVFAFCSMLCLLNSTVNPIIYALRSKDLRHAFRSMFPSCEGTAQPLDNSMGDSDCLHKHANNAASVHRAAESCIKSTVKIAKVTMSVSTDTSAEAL
Excerpt: as §1

alpha1A (h) = molecular target: T6, alpha1A (h) (Homo sapiens, UniProt P35348); assay: In vitro CEREP profiling, alpha1A (h) (antagonist radioligand); format: binding; conditions: test compound 10 uM
T6 construct: purchased Eurofins Cerep (SafetyScreen44), recognised from the panel format
T6 sequence (P35348 1-466): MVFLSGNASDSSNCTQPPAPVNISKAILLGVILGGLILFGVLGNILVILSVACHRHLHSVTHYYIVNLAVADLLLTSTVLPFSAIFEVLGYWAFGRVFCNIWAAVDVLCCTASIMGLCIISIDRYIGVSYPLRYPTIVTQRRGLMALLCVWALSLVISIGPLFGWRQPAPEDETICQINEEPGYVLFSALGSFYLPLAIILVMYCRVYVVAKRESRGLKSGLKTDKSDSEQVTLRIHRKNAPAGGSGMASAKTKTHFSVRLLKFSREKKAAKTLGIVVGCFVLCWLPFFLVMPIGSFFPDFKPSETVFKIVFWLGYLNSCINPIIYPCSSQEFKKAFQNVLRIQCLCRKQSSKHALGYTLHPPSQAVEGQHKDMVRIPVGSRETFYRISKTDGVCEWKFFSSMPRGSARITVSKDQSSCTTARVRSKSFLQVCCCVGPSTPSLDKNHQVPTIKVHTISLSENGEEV
Excerpt: as §1

[1] = protocol HeLa-ACE2 cytotoxicity
[2] = In vitro dog plasma protein binding
[3] = In vitro fetal calf serum protein binding
[4] = In vitro human plasma protein binding
[5] = In vitro mouse plasma protein binding
[6] = In vitro rat plasma protein binding

SMILES: CC(C)C(Nc1ncnc2[nH]ccc12)c1ccc2c(c1)S(=O)(=O)CCC2 (centres unmarked) [ASAP-0008327]
- cc10 (HeLa-ACE2 cells; [1]): > 50.0 µM
- perc_max_measured (HeLa-ACE2 cells; [1]): 104.85%
- perc_min_measured (HeLa-ACE2 cells; [1]): 98.585%

SMILES: CC(C)[C@H](Nc1ncnc2[nH]c(-c3cnn(C)c3C#N)cc12)c1ccc2c(n1)OCCO2 [ASAP-0010715]
- pIC50 (CYP; isoform 1A2): 4.45
- potency (CYP; isoform 1A2): weak
- pIC50 (CYP; isoform 2C9): 5.23
- potency (CYP; isoform 2C9): moderate
- pIC50 (CYP; isoform 2C19): 4.77
- potency (CYP; isoform 2C19): weak
- pIC50 (CYP; isoform 2D6): 4.56
- potency (CYP; isoform 2D6): weak
- pIC50 (CYP; isoform 3A4): 5.43
- potency (CYP; isoform 3A4): moderate
- perc_inhibition (% inhibition of the binding of a ligand specific for each target) (alpha2A (h)): 7%
- perc_inhibition (% inhibition of the binding of a ligand specific for each target) (A2A (h)): 84%
- perc_inhibition (% inhibition of the binding of a ligand specific for each target) (KV channel): 0%
- perc_inhibition (% inhibition of the binding of a ligand specific for each target) (human CHRM2 (M2)): 18%
- CC50 (HeLa-ACE2 cells; HeLa-ACE2 cytotoxicity): 12.5 µM and > 20 µM
- perc_max_measured (HeLa-ACE2 cells; HeLa-ACE2 cytotoxicity): 90.88% and 122.905% and 97.413%
- fu (Protein binding; [2]): 0.042
- perc_bound (Protein binding; [2]): 95.8%
- perc_free (Protein binding; [2]): 4.24%
- perc_recovered (Protein binding; [2]): 87.48%
- fu (Protein binding; [3]): 0.072
- perc_bound (Protein binding; [3]): 92.8%
- perc_free (Protein binding; [3]): 7.24%
- perc_recovered (Protein binding; [3]): 89.85%
- fu (Protein binding; [4]): 0.005
- perc_bound (Protein binding; [4]): 99.5%
- perc_free (Protein binding; [4]): 0.541%
- perc_recovered (Protein binding; [4]): 113.8%
- fu (Protein binding; [5]): 0.026
- perc_bound (Protein binding; [5]): 97.4%
- perc_free (Protein binding; [5]): 2.56%
- perc_recovered (Protein binding; [5]): 93.63%
- fu (Protein binding; [6]): 0.02
- perc_bound (Protein binding; [6]): 98.0%
- perc_free (Protein binding; [6]): 2.04%
- perc_recovered (Protein binding; [6]): 97.27%
- perc_inhibition (% inhibition of the binding of a ligand specific for each target) (M3 (h)): -15%
- perc_inhibition (% inhibition of the binding of a ligand specific for each target) (CB1 (h)): 46%
- perc_inhibition (% inhibition of the binding of a ligand specific for each target) (alpha1A (h)): 34%

SMILES: CC(C)[C@@H](Nc1ncnc2[nH]c(-c3cnn(C)c3C#N)cc12)c1ccc2c(n1)OCCO2 [ASAP-0010716]
- pIC50 (CYP; isoform 1A2): 5.05
- potency (CYP; isoform 1A2): moderate
- pIC50 (CYP; isoform 2C9): 5.36
- potency (CYP; isoform 2C9): moderate
- pIC50 (CYP; isoform 2C19): 5.02
- potency (CYP; isoform 2C19): moderate
- pIC50 (CYP; isoform 2D6): 4.64
- potency (CYP; isoform 2D6): weak
- pIC50 (CYP; isoform 3A4): 5.68
- potency (CYP; isoform 3A4): moderate
- perc_inhibition (% inhibition of the binding of a ligand specific for each target) (alpha2A (h)): 9%
- perc_inhibition (% inhibition of the binding of a ligand specific for each target) (A2A (h)): 69%
- perc_inhibition (% inhibition of the binding of a ligand specific for each target) (KV channel): 2%
- perc_inhibition (% inhibition of the binding of a ligand specific for each target) (human CHRM2 (M2)): 15%
- CC50 (HeLa-ACE2 cells; HeLa-ACE2 cytotoxicity): > 20 µM
- cc10 (HeLa-ACE2 cells; HeLa-ACE2 cytotoxicity): > 20.0 µM
- perc_max_measured (HeLa-ACE2 cells; HeLa-ACE2 cytotoxicity): 137.444% and 97.941%
- perc_min_measured (HeLa-ACE2 cells; HeLa-ACE2 cytotoxicity): 84.699% and 78.982%
- fu (Protein binding; [2]): 0.029
- perc_bound (Protein binding; [2]): 97.1%
- perc_free (Protein binding; [2]): 2.93%
- perc_recovered (Protein binding; [2]): 91.53%
- fu (Protein binding; [3]): 0.038
- perc_bound (Protein binding; [3]): 96.2%
- perc_free (Protein binding; [3]): 3.84%
- perc_recovered (Protein binding; [3]): 96.46%
- fu (Protein binding; [4]): 0.005
- perc_bound (Protein binding; [4]): 99.5%
- perc_free (Protein binding; [4]): 0.507%
- perc_recovered (Protein binding; [4]): 111.8%
- fu (Protein binding; [5]): 0.027
- perc_bound (Protein binding; [5]): 97.3%
- perc_free (Protein binding; [5]): 2.67%
- perc_recovered (Protein binding; [5]): 94.71%
- fu (Protein binding; [6]): 0.022
- perc_bound (Protein binding; [6]): 97.8%
- perc_free (Protein binding; [6]): 2.16%
- perc_recovered (Protein binding; [6]): 100.0%
- perc_inhibition (% inhibition of the binding of a ligand specific for each target) (M3 (h)): 1%
- perc_inhibition (% inhibition of the binding of a ligand specific for each target) (CB1 (h)): 14%
- perc_inhibition (% inhibition of the binding of a ligand specific for each target) (alpha1A (h)): 11%
